In patent US20210069249A1, “METHODS AND COMPOSITIONS OF CYTOTOXIC T CELL DEPLETION” (CRISPR THERAPEUTICS AG, priority 2018, published 2021):

Columns and labels:
exon 6 of the IL2RG gene = test: On-target cleavage efficiency (INDEL, TIDES protocol) of IL2RG gRNAs; format: cell-based; conditions: primary human CD3+ T cells; one day post-editing; 3 independent experiments
[1] = system: off-target sites in primary human CD3+ cells; test: GUIDE-seq off-target analysis of IL2RG gRNAs; format: cell-based; conditions: for On-Target Read Count / on-target/off-target profile (GUIDE-seq) / GUIDE-seq Off-Targets / Present in Multiple Replicates: CD3+ T cells; for on-target/off-target profile (GUIDE-seq): multiple independent cell sample replicates; for GUIDE-seq Off-Targets: number of sites; for Present in Multiple Replicates: off-target sites found in at least 2 cell sample replicates;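 for all read-outs here: Cas9 RNP plus double-stranded oligonucleotide nucleofected into CD3+ T cells, capture sites found by sequencing, sites also seen in RNP-free control cells discarded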
[2] = system: TCR and CD3 expression in CD8+ and CD3+ T cells; test: TCR and CD3 expression by flow cytometry after TRAC editing; format: cell-based, human; conditions: day seven post-editing
[3] = system: primary human CD8+ or CD3+ T cells; test: Cell viability and total cell counts after Cas9/gRNA RNP editing; conditions: day two post-editing
TRAC gene = test: On-target cleavage efficiency (INDEL, TIDES protocol) of TRAC gRNAs; conditions: day two post-editing, 2 independent experiments

GC1: sgRNA targeting IL2RG exon 6, spacer 5′-ACCAGTGCCTGGCATGTAGT-3′ (spacer only, sgRNA scaffold lacks entry, further chemistry not given here)
Average INDEL Frequency (%) (exon 6 of the IL2RG gene): 46.43%

GC2: sgRNA targeting IL2RG exon 6, spacer 5′-CCAGTGCCTGGCATGTAGTA-3′ (spacer only, sgRNA scaffold lacks entry, further chemistry not given here)
Average INDEL Frequency (%) (exon 6 of the IL2RG gene): 74.67%

GC3: sgRNA targeting IL2RG exon 6, spacer 5′-CAGTGCCTGGCATGTAGTAG-3′ (spacer only, sgRNA scaffold lacks entry, further chemistry not given here)
Average INDEL Frequency (%) (exon 6 of the IL2RG gene): 77.53%

GC4: sgRNA targeting IL2RG exon 6, spacer 5′-GTAGGGGCACAACAAATATA-3′ (spacer only, sgRNA scaffold lacks entry, further chemistry not given here)
Average INDEL Frequency (%) (exon 6 of the IL2RG gene): 41.07%

GC5: sgRNA targeting IL2RG exon 6, spacer 5′-GAATCCTTTCCTGTTTGCAT-3′ (spacer only, sgRNA scaffold lacks entry, further chemistry not given here)
Average INDEL Frequency (%) (exon 6 of the IL2RG gene): 13.03%

GC6: sgRNA targeting IL2RG exon 6, spacer 5′-CCTGTTTGCATTGGAAGCCG-3′ (spacer only, sgRNA scaffold lacks entry, further chemistry not given here)
Average INDEL Frequency (%) (exon 6 of the IL2RG gene): 14.80%

GC7: sgRNA targeting IL2RG exon 6, spacer 5′-GAAGCCGTGGTTATCTCTGT-3′ (spacer only, sgRNA scaffold lacks entry, further chemistry not given here)
Average INDEL Frequency (%) (exon 6 of the IL2RG gene): 31.07%

GC8: sgRNA targeting IL2RG exon 6, spacer 5′-GGTTATCTCTGTTGGCTCCA-3′ (spacer only, sgRNA scaffold lacks entry, further chemistry not given here)
Average INDEL Frequency (%) (exon 6 of the IL2RG gene): 66.40%
On-Target Read Count [1]: 4348
on-target/off-target profile (GUIDE-seq) [1]: generally favorable
GUIDE-seq Off-Targets [1]: 930
Present in Multiple Replicates [1]: 3
Off-Target/On-Target ([1]; site chr1 125180094, Intergenic): 1.54%
Off-Target/On-Target ([1]; site chr16 46390807, Intergenic): 0.14%
Off-Target/On-Target ([1]; site chr16 46399022, Intergenic): 0.46%

GC9: sgRNA targeting IL2RG exon 6, spacer 5′-GTTATCTCTGTTGGCTCCAT-3′ (spacer only, sgRNA scaffold lacks entry, further chemistry not given here)
Average INDEL Frequency (%) (exon 6 of the IL2RG gene): 31.37%

GC10: sgRNA targeting IL2RG exon 6, spacer 5′-AAGGCTGATAATCAATCCCA-3′ (spacer only, sgRNA scaffold lacks entry, further chemistry not given here)
Average INDEL Frequency (%) (exon 6 of the IL2RG gene): 71.77%
On-Target Read Count [1]: 5384
on-target/off-target profile (GUIDE-seq) [1]: generally favorable
GUIDE-seq Off-Targets [1]: 1227
Present in Multiple Replicates [1]: 14
Off-Target/On-Target ([1]; site chr3 108840645, Intronic, TRAT1): 3.05%
Off-Target/On-Target ([1]; site chr5 159185831, Intronic, RNF145): 0.20%
Off-Target/On-Target ([1]; site chr12 62289934, Intronic, USP15): 0.48%
Off-Target/On-Target ([1]; site chr21 17142630, Intergenic): 0.71%
Off-Target/On-Target ([1]; site chrUn_KI270438v1 104161): 1.60%
Off-Target/On-Target ([1]; site chrUn_KI270438v1 104938): 0.28%
Off-Target/On-Target ([1]; site chrUn_KI270438v1 109447): 0.39%
Off-Target/On-Target ([1]; site chrUn_KI270467v1 2297): 0.17%
Off-Target/On-Target ([1]; site chrUn_KI270467v1 2459): 0.17%
Off-Target/On-Target ([1]; site chrUn_KI270467v1 2622): 0.48%
Off-Target/On-Target ([1]; site chrUn_KI270467v1 2830): 0.13%
Off-Target/On-Target ([1]; site chrUn_KI270467v1 3365): 0.26%

GC11: sgRNA targeting IL2RG exon 6, spacer 5′-GGAGCCAACAGAGATAACCA-3′ (spacer only, sgRNA scaffold lacks entry, further chemistry not given here)
Average INDEL Frequency (%) (exon 6 of the IL2RG gene): 15.60%

GC12: sgRNA targeting IL2RG exon 6, spacer 5′-CCACGGCTTCCAATGCAAAC-3′ (spacer only, sgRNA scaffold lacks entry, further chemistry not given here)
Average INDEL Frequency (%) (exon 6 of the IL2RG gene): 58.43%
On-Target Read Count [1]: 2352
on-target/off-target profile (GUIDE-seq) [1]: generally favorable
GUIDE-seq Off-Targets [1]: 1368
Present in Multiple Replicates [1]: 4
Off-Target/On-Target ([1]; site chr13 18212170, Intronic, FAM230C): 1.02%
Off-Target/On-Target ([1]; site chrUn_KI270467v1 2459): 0.77%
Off-Target/On-Target ([1]; site chrUn_KI270467v1 2660): 0.34%
Off-Target/On-Target ([1]; site chrUn_KI270590v1 2621): 0.38%

GC13: sgRNA targeting IL2RG exon 6, spacer 5′-GCTTCCAATGCAAACAGGAA-3′ (spacer only, sgRNA scaffold lacks entry, further chemistry not given here)
Average INDEL Frequency (%) (exon 6 of the IL2RG gene): 35.60%

GC14: sgRNA targeting IL2RG exon 6, spacer 5′-TAGAAAAAAGAAAAGCAAAG-3′ (spacer only, sgRNA scaffold lacks entry, further chemistry not given here)
Average INDEL Frequency (%) (exon 6 of the IL2RG gene): 28.23%

GC15: sgRNA targeting IL2RG exon 6, spacer 5′-TTGTGCCCCTACTACATGCC-3′ (spacer only, sgRNA scaffold lacks entry, further chemistry not given here)
Average INDEL Frequency (%) (exon 6 of the IL2RG gene): 46.77%

TRAC 2: sgRNA targeting TRAC, spacer 5′-AGAGCAACAGTGCTGTGGCC-3′ (spacer only, sgRNA scaffold lacks entry, chemistry not fully specified)
CD3+ cells (%) ([2]; CD3+ T cells): 43.17%
TCR+ cells (%) ([2]; CD3+ T cells): 8.63%
CD3+ cells (%) ([2]; CD8+ T cells): 24.34%
TCR+ cells (%) ([2]; CD8+ T cells): 8.1%
Cell count ([3]; CD3+ T cells): 7.77E+05
Cell count ([3]; CD8+ T cells): 7.84E+05
INDEL Frequency (%) (TRAC gene; CD3+ T cells): 53.85%
INDEL Frequency (%) (TRAC gene; CD8+ T cells): 59.5%

TRAC 2: sgRNA targeting TRAC, spacer 5′-AGAGCAACAGTGCTGTGGCC-3′ (spacer only; sgRNA scaffold lacks entry; TRAC gRNA spacer, TRAC 2)
Cell Viability (%) ([3]; CD3+ T cells): 80%
Cell Viability (%) ([3]; CD8+ T cells): 88.5%
